Experimental data: the supplement of paper PMC10307832

Assays:
Bortezomib = compound: CC(C)C[C@H](NC(=O)[C@H](Cc1ccccc1)NC(=O)c1cnccn1)B(O)O [Bortezomib]; assay: relative viability (nuclei count vs DMSO), 5 days (fraction); higher = more cells survive
In short: (§1)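 Hoechst staining, done together with fixation and permeabilisation, marked nuclei for 4× imaging and MetaXpress counting. This followed 5 days without medium change after lung cancer cell lines, kept overnight at 37 °C in 1536-well plates, were pinned with five library-drug doses (not always all listed) spaced by √10 on vehicle-anchored plates. Viability is the ratio of treated-well to vehicle-well nuclei, expressed as a median across plates. Plates passed only at control CV below 25% with at least one doubling.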

Obatoclax = compound: COC1=CC(c2cc3ccccc3[nH]2)=N/C1=C\c1[nH]c(C)cc1C [Obatoclax]; assay: as above
In short: as §1

Cell Line | relative viability (Bortezomib; 0.0002 µM) | relative viability (Bortezomib; 0.002 µM) | relative viability (Bortezomib; 0.002 µM, anchor plate) | relative viability (Bortezomib; 0.006325 µM) | relative viability (Bortezomib; 0.02 µM) | relative viability (Obatoclax; 0.01 µM) | relative viability (Obatoclax; 0.03162 µM) | relative viability (Obatoclax; 0.1 µM) | relative viability (Obatoclax; 0.3162 µM) | relative viability (Obatoclax; 1 µM) | relative viability (Bortezomib; 0.000632 µM)
NCI-H322M | 0.922 | 0.918 | 1.24 | 0.458 | 0.421 | 0.975 | 0.783 | 1.16 | 1 | 1.01 | –
NCI-H358 | 0.904 | 0.874 | – | 0.131 | 0.162 | 0.923 | 0.911 | 0.833 | 0.623 | 0.319 | 0.675
NCI-H441 | 0.936 | 0.575 | 0.555 | 0.132 | 0.139 | 1.06 | 0.91 | 0.99 | 0.705 | 0.463 | 0.964
NCI-H460 | 0.971 | 1.03 | 1.09 | 0.542 | 0.0702 | 1 | 0.936 | 0.882 | 0.746 | 0.56 | 0.97
NCI-H520 | 1.08 | 0.654 | 0.622 | 0.172 | 0.169 | 0.993 | 0.791 | 1.07 | 0.976 | 0.774 | 0.956
NCI-H522 | 0.947 | 1.02 | – | 0.638 | 0.415 | 0.951 | 0.894 | 0.861 | 0.876 | 0.904 | 0.745
NCI-H596 | 0.918 | 0.718 | 1.05 | 0.241 | 0.211 | 1.01 | 0.858 | 0.843 | 0.691 | 0.584 | 0.894
NCI-H647 | 0.865 | 0.55 | 0.962 | 0.0435 | 0.0339 | 0.987 | 0.894 | 0.68 | 0.711 | 0.303 | 0.812
NCI-H661 | 0.952 | 0.989 | 0.807 | 0.719 | 0.228 | 0.96 | 0.962 | 1.02 | 0.883 | 0.842 | 0.99
NCI-H727 | 0.919 | 0.897 | 0.936 | 0.647 | 0.171 | 1.09 | 0.88 | 1.14 | 0.972 | 0.658 | 1.06
NCI-H838 | 0.952 | 0.974 | 0.858 | 0.253 | 0.161 | 0.995 | 0.945 | 0.78 | 0.904 | 0.65 | 0.955
NCI-H1299 | 0.992 | 1.03 | 1 | 0.507 | 0.167 | 0.989 | 1.03 | 0.948 | 1.01 | 0.9 | 0.955
NCI-H1355 | 0.911 | 1.08 | 1.23 | 0.668 | 0.152 | 1.03 | 0.913 | 0.918 | 0.96 | 0.947 | 0.909
NCI-H1395 | 0.949 | 0.807 | – | 0.332 | 0.293 | 1 | 0.846 | 0.647 | 0.838 | 0.68 | 0.866
NCI-H1437 | 0.928 | 1 | 0.542 | 0.272 | 0.173 | 0.942 | 0.93 | 0.951 | 0.932 | 0.816 | 1
NCI-H1563 | 0.971 | 0.826 | 0.858 | 0.564 | 0.442 | 0.989 | 0.979 | 1.08 | 0.956 | 0.895 | 1

Cell Line | relative viability (Bortezomib; 0.0002 µM) | relative viability (Bortezomib; 0.002 µM) | relative viability (Bortezomib; 0.002 µM, anchor plate) | relative viability (Bortezomib; 0.006325 µM) | relative viability (Bortezomib; 0.02 µM) | relative viability (Obatoclax; 0.01 µM) | relative viability (Obatoclax; 0.03162 µM) | relative viability (Obatoclax; 0.1 µM) | relative viability (Obatoclax; 0.3162 µM) | relative viability (Obatoclax; 1 µM) | relative viability (Bortezomib; 0.000632 µM)
NCI-H1623 | 0.955 | 0.766 | – | 0.325 | 0.273 | 0.98 | 0.978 | 1.24 | 1.04 | 0.956 | 1.01
NCI-H1648 | 0.771 | 0.529 | – | 0.622 | 0.312 | 1.02 | 0.85 | 1.64 | 0.718 | 0.815 | 0.769
NCI-H1650 | 0.751 | 0.2 | 0.206 | 0.161 | 0.167 | 0.938 | 0.981 | 0.879 | 0.646 | 0.34 | 0.805
NCI-H1651 | 0.992 | 0.727 | 0.943 | 0.173 | 0.121 | 0.954 | 0.957 | 1.07 | 0.847 | 0.754 | 0.969
NCI-H1666 | 1.01 | 0.963 | 0.855 | 0.493 | 0.317 | 0.995 | 1.03 | 1.08 | 0.856 | 0.517 | 1.04
NCI-H1703 | 1.15 | 0.356 | 0.338 | 0.132 | 0.119 | 0.955 | 0.846 | 0.858 | 0.72 | 0.542 | 0.757
NCI-H1734 | 0.929 | 0.944 | 0.945 | 0.15 | 0.119 | 1.01 | 0.934 | 0.812 | 0.821 | 0.365 | 1.01
NCI-H1755 | 1.01 | 1.02 | 0.963 | 0.378 | 0.224 | 0.981 | 0.975 | 0.884 | 0.994 | 0.964 | 0.96
NCI-H1792 | 0.754 | 0.904 | 0.956 | 0.602 | 0.277 | 0.985 | 0.795 | – | 0.92 | 0.7 | 0.838
NCI-H1793 | 0.843 | 0.997 | – | 0.688 | 0.208 | 0.949 | 0.795 | 0.859 | 0.929 | 0.986 | 0.705
NCI-H1915 | 0.948 | 1.09 | 0.96 | 0.91 | 0.0999 | 0.973 | 0.949 | 0.898 | 0.999 | 0.941 | 1
NCI-H1944 | 0.926 | 0.917 | – | 0.854 | 0.283 | 1.04 | 0.883 | 1.01 | 1.01 | 1.02 | 0.94
NCI-H1975 | 0.902 | 0.239 | 0.395 | 0.153 | 0.158 | 1.02 | 0.865 | – | 0.977 | 0.717 | 0.858
NCI-H1993 | 0.903 | 1.01 | 1.19 | 0.493 | 0.502 | 0.92 | 0.865 | 1.07 | 1.03 | 0.896 | 0.935
NCI-H2009 | 1.01 | 1.07 | 0.971 | 0.0869 | 0.0749 | 0.958 | 1.02 | 0.85 | 0.626 | 0.301 | 0.977
NCI-H2023 | 1.02 | 1 | 1.01 | 0.139 | 0.0632 | 0.928 | 0.969 | 0.946 | 0.774 | 0.229 | 0.9
